# From ChEMBL document CHEMBL5291721, “A preclinical secondary pharmacology resource illuminates target-adverse drug reaction associations of marketed drugs” (Nat Commun, 2023)
# Assays:
# [1] = target: T1, 5-hydroxytryptamine receptor 1A (Homo sapiens, UniProt P08908); type: functional, cell-based
# T1 sequence (P08908 whole entry): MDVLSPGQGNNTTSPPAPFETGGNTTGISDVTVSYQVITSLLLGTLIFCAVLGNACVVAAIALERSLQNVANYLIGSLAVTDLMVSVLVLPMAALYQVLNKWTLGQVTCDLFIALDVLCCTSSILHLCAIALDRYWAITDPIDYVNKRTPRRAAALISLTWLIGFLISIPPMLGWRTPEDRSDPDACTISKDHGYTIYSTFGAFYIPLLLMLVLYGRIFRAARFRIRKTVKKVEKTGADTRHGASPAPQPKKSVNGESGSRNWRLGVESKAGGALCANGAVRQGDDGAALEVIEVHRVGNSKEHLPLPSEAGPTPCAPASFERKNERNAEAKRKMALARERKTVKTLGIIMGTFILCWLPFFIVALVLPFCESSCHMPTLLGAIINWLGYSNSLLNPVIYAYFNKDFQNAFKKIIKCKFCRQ
# [2] = target: Growth hormone secretagogue receptor type 1 (Homo sapiens, UniProt Q92847)
# Endothelin-1 receptor = target: T2, Endothelin-1 receptor (Homo sapiens, UniProt P25101)
# T2 sequence (P25101 whole entry): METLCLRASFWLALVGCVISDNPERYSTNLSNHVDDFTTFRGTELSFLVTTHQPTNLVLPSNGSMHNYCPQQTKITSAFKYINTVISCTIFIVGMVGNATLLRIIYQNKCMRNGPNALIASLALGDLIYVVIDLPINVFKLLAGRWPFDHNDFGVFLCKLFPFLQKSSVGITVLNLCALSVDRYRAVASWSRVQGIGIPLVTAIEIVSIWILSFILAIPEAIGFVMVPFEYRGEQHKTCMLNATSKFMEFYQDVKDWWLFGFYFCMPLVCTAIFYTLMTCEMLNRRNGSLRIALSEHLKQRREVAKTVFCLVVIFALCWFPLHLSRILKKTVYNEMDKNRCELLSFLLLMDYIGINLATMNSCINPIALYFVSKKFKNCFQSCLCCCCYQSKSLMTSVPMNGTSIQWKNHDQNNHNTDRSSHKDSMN
# [3] = target: T1, 5-hydroxytryptamine receptor 1A; type: functional, cell-based; remark: listed apart in the source
# [4] = target: T3, Equilibrative nucleoside transporter 1 (Homo sapiens, UniProt Q99808)
# T3 sequence (Q99808 whole entry): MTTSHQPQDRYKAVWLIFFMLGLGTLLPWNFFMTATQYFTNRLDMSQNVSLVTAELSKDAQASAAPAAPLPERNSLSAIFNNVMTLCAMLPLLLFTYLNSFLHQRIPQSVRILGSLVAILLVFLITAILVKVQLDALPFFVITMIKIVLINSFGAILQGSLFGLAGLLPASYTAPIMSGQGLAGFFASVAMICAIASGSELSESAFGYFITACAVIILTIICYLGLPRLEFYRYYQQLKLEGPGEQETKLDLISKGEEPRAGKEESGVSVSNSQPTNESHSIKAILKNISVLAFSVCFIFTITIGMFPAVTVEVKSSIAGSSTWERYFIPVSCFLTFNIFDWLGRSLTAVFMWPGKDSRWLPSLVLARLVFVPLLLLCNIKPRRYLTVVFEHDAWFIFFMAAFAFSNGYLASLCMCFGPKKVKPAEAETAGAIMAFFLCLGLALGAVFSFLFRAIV
# [5] = target: Glutamate receptor ionotropic, NMDA 1 (Rattus norvegicus, UniProt P35439)
# [6] = target: T4, 5-hydroxytryptamine receptor 2B (Homo sapiens, UniProt P41595); type: functional, cell-based
# Adenosine receptor A3 = target: T5, Adenosine receptor A3 (Homo sapiens, UniProt P0DMS8)
# T5 sequence (P0DMS8 whole entry): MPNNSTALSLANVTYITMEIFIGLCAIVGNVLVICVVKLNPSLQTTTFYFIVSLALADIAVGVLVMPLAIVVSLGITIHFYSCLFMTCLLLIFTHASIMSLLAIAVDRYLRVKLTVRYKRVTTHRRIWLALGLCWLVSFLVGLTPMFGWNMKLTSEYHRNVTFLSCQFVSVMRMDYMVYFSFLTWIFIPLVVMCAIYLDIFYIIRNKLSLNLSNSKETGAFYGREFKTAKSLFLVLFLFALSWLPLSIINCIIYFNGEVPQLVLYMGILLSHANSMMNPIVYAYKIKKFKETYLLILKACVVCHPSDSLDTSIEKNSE
# [7] = target: Voltage-dependent L-type calcium channel subunit alpha-1C (Rattus norvegicus, UniProt P22002); type: functional
# Mu-type opioid receptor = Mu-type opioid receptor (Homo sapiens, UniProt P35372); assay: biochemical; type: functional
# Cannabinoid receptor 1 [8] = target: T6, Cannabinoid receptor 1 (Homo sapiens, UniProt P21554); type: functional, cell-based
# [9] = target: 3',5'-cyclic-AMP phosphodiesterase 4D (Homo sapiens, UniProt Q08499); type: functional
# Cannabinoid receptor 1 [10] = target: T6, Cannabinoid receptor 1; type: functional, cell-based; remark: listed apart in the source
# [11] = target: T4, 5-hydroxytryptamine receptor 2B; type: functional, cell-based; remark: listed apart in the source
# Vasopressin V2 receptor = Vasopressin V2 receptor (Homo sapiens, UniProt P30518)
# [12] = target: T7, Muscarinic acetylcholine receptor M1 (Homo sapiens, UniProt P11229); type: functional
# T7 sequence (P11229 whole entry): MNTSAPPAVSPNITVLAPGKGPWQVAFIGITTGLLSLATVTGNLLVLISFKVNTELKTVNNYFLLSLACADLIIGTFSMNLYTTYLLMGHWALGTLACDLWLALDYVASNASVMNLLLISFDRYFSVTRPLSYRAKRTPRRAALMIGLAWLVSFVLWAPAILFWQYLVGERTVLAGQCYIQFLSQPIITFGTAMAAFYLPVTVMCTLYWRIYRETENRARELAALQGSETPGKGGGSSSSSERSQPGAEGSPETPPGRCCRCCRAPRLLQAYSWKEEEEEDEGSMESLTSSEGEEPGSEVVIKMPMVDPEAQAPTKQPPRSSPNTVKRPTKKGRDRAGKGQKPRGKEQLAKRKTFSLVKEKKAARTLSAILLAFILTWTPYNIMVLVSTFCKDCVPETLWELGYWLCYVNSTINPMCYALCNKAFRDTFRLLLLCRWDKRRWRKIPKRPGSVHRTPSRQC
# Note: assay procedure not described here.
# T6 sequence (P21554 whole entry): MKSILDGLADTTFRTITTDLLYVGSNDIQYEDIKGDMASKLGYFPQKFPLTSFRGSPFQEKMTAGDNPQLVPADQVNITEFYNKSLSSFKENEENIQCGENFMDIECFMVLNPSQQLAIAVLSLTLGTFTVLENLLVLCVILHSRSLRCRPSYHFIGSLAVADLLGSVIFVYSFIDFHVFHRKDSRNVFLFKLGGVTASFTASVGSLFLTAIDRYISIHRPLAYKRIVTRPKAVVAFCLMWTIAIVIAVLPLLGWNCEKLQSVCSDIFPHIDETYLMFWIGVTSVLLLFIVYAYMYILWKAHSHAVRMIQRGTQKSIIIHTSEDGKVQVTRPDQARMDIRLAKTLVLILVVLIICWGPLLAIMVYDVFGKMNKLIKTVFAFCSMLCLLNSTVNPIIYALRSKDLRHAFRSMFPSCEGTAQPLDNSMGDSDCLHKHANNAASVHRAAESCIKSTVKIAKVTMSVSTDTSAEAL
# Sequence of Growth hormone secretagogue receptor type 1 (Q92847 whole entry): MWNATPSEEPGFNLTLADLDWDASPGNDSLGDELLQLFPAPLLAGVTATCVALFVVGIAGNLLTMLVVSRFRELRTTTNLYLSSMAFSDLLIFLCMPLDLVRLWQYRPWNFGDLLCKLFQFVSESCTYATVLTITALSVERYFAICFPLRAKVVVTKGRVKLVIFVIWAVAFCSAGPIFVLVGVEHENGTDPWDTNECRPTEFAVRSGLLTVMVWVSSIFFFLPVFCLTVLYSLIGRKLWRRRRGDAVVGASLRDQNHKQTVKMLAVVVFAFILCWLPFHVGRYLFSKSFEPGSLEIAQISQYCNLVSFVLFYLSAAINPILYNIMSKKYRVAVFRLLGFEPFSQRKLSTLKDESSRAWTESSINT
# Sequence of Voltage-dependent L-type calcium channel subunit alpha-1C (P22002 whole entry): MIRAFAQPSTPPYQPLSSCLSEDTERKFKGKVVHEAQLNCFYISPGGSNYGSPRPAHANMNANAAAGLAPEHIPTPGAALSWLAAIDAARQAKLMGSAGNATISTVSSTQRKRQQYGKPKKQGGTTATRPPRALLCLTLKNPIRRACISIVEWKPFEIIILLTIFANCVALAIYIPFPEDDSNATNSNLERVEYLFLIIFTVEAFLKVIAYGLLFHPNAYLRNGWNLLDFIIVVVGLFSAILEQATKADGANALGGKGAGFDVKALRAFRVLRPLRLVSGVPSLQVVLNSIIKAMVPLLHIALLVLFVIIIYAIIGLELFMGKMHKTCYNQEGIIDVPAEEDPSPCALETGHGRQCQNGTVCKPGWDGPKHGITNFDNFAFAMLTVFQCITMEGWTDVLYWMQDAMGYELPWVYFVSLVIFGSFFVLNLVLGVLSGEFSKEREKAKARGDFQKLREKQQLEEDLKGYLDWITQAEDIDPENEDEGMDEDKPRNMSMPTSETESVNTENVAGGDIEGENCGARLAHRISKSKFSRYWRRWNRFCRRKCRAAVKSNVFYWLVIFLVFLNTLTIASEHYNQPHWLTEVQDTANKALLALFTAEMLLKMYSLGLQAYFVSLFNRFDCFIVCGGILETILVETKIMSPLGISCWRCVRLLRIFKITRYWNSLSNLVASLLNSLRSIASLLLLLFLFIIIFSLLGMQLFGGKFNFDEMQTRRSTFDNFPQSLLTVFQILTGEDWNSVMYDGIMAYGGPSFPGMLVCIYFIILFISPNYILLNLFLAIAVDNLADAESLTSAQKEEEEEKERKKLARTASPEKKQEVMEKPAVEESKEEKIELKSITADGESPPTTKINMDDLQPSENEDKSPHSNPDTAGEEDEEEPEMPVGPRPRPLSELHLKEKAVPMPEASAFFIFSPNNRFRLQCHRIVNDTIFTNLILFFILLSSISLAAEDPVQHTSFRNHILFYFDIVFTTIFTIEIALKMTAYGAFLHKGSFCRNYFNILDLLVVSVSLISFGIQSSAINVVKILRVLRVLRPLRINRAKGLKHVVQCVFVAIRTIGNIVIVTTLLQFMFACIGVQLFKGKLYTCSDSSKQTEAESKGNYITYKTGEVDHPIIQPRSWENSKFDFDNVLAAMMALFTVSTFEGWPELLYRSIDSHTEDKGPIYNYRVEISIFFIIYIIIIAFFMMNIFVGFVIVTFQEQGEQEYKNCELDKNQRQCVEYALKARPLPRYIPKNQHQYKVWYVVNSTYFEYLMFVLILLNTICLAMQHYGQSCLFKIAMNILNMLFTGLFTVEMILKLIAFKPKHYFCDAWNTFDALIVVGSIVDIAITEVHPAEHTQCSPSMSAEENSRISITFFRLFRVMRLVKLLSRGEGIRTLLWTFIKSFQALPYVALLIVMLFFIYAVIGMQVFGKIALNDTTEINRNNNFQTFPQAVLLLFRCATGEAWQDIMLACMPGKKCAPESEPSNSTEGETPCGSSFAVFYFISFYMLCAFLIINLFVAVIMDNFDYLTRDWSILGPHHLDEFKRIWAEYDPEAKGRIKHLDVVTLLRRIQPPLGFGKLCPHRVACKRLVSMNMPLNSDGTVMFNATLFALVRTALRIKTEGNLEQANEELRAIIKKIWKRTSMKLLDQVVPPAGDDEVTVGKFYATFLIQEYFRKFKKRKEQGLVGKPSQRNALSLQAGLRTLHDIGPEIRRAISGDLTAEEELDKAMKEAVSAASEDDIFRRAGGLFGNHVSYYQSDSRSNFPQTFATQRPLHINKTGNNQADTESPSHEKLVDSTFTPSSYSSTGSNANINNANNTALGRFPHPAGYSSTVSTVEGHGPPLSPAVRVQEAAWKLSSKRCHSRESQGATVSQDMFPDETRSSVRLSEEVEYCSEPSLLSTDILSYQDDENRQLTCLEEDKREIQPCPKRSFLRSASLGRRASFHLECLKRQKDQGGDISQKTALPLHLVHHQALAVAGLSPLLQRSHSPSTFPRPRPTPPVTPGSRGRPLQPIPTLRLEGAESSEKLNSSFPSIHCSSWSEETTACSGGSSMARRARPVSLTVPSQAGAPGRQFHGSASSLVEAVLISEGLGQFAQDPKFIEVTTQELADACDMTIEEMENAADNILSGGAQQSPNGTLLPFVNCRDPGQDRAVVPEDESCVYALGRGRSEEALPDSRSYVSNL
# Sequence of 3',5'-cyclic-AMP phosphodiesterase 4D (Q08499 whole entry): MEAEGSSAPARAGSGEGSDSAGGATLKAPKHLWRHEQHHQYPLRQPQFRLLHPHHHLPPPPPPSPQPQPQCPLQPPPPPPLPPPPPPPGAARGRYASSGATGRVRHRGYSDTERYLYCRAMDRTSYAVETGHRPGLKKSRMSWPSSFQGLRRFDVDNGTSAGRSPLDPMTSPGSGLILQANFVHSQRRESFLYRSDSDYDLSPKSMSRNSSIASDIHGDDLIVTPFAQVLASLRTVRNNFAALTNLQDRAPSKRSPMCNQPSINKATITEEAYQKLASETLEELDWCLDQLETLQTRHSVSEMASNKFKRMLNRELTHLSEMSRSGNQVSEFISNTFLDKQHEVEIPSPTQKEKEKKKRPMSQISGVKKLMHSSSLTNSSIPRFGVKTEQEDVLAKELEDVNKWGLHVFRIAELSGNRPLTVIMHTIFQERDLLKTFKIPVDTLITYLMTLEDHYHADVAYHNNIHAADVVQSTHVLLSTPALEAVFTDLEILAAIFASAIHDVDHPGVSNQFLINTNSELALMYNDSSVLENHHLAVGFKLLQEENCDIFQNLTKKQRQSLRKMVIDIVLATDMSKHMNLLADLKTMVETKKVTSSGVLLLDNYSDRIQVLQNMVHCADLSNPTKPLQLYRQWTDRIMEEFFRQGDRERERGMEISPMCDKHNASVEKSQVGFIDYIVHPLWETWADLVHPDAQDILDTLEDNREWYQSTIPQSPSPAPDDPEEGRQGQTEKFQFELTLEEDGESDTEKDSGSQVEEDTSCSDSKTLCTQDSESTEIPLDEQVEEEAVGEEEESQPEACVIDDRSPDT
# Sequence of Mu-type opioid receptor (P35372 whole entry): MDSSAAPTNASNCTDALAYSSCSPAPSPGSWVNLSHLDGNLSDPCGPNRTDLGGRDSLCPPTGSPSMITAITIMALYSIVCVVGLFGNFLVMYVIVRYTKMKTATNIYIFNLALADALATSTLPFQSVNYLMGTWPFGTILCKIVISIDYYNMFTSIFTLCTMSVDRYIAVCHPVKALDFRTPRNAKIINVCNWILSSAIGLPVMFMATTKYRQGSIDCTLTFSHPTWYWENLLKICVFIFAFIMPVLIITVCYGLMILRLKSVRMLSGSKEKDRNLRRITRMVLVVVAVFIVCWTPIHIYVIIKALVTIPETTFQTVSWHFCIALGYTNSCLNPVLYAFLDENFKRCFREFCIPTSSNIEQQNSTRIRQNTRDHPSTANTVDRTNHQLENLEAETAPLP
# T4 sequence (P41595 whole entry): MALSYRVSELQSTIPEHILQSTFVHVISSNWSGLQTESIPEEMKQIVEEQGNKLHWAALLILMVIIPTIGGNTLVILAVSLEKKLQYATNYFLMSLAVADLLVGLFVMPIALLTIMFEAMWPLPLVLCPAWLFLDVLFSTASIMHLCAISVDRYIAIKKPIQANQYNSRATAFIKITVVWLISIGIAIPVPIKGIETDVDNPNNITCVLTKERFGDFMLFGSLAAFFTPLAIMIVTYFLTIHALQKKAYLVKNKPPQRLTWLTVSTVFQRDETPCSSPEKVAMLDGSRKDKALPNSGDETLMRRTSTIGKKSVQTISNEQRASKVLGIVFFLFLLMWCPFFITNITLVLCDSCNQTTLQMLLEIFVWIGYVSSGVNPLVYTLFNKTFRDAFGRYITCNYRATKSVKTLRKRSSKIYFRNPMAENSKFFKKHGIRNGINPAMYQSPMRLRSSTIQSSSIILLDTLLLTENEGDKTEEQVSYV
Compound,AC50 [1] [µM],AC50 [2] [µM],AC50 (Endothelin-1 receptor) [µM],AC50 [3] [µM],AC50 [4] [µM],AC50 [5] [µM],AC50 [6] [µM],AC50 (Adenosine receptor A3) [µM],AC50 [7] [µM],AC50 (Mu-type opioid receptor) [µM],AC50 (Cannabinoid receptor 1 [8]) [µM],AC50 [9] [µM],AC50 (Cannabinoid receptor 1 [10]) [µM],AC50 [11] [µM],AC50 (Vasopressin V2 receptor) [µM],AC50 [12] [µM]
COc1ccc2c(c1)c(CC(=O)OCC(=O)O)c(C)n2C(=O)c1ccc(Cl)cc1 [ACEMETACIN],25,> 30,> 30,> 30,> 30,> 30,> 30,> 30,> 30,> 30,> 30,> 30,> 30,> 30,> 30,–
CN1C(=O)COc2c(C(=O)NC3CN4CCC3CC4)cc(Cl)cc21 (stereo not given) [AZASETRON],> 30,> 30,> 30,> 30,> 30,> 30,> 30,> 30,> 30,> 30,> 30,4.1,> 30,> 30,> 30,–
Cc1cc2c(OCC(CNC(C)(C)C)OC(=O)c3ccccc3)cccc2[nH]1 (stereo not given) [BOPINDOLOL],0.028,16,> 30,> 30,> 30,> 30,19,> 30,> 30,> 30,> 30,> 30,> 30,> 30,> 30,–
CCCCN1CCCCC1C(=O)Nc1c(C)cccc1C (stereo not given) [BUPIVACAINE],> 30,> 30,> 30,> 30,–,> 30,> 30,> 30,> 30,> 30,> 30,> 30,> 30,> 30,> 30,–
CC(C)(Oc1ccc(C2CC2(Cl)Cl)cc1)C(=O)O (stereo not given) [CIPROFIBRATE],> 30,> 30,> 30,> 30,> 30,> 30,> 30,> 30,> 30,> 30,> 30,> 30,> 30,> 30,> 30,–
COC(=O)[C@H]1[C@@H](OC(=O)c2ccccc2)C[C@@H]2CC[C@H]1N2C [COCAINE],–,> 30,> 30,> 30,> 30,> 30,> 30,> 30,> 30,> 30,> 30,> 30,> 30,> 30,> 30,> 30
Cc1c(O)c(=O)ccn1C [DEFERIPRONE],> 30,> 30,> 30,> 30,> 30,> 30,> 30,> 30,> 30,> 30,> 30,> 30,> 30,> 30,> 30,–
CC/C=C\C/C=C\C/C=C\CCCCCCCC(=O)O [LINOLENIC ACID],–,> 30,> 30,> 30,> 30,> 30,–,> 30,–,> 30,> 30,> 30,> 30,> 30,> 30,> 30
Cc1cccc(C)c1NC(=O)C1CCCCN1C (stereo not given) [MEPIVACAINE],> 30,> 30,> 30,> 30,> 30,> 30,> 30,> 30,–,> 30,> 30,> 30,> 30,> 30,> 30,–
C[C@]12CCC(=O)C=C1CC[C@@H]1[C@@H]2CC[C@@]2(C)[C@H]1CC[C@]2(C)O [METHYLTESTOSTERONE],> 30,> 30,> 30,> 30,> 30,> 30,22,> 30,> 30,> 30,> 30,> 30,> 30,> 30,> 30,–
COc1c(C)c2c(c(O)c1C/C=C(\C)CCC(=O)OCCN1CCOCC1)C(=O)OC2 [MYCOPHENOLATE MOFETIL],–,> 30,> 30,> 30,> 30,> 30,> 30,> 30,> 30,> 30,> 30,> 30,> 30,> 30,> 30,–
Nc1nc2ccc(OC(F)(F)F)cc2s1 [RILUZOLE],> 30,> 30,> 30,> 30,> 30,> 30,> 30,> 30,–,> 30,> 30,14,> 30,> 30,> 30,–
TOCOFERSOLAN,> 30,> 30,> 30,> 30,> 30,> 30,> 30,> 30,> 30,> 30,> 30,> 10,> 30,> 30,> 30,> 30
